Patent US20120225889A1, “USE OF MACROCYCLIC LACTONE DERIVATIVES FOR THE TREATMENT OF INFLAMMATORY DISORDERS” (PIRAMAL LIFE SCIENCES LIMITED, priority 2010, published 2012)

What was measured:
TNF-α = test: Screening in LPS stimulated THP-1 cells: TNF-α; assay type: cell-based; conditions: Homo sapiens, 24 h, ELISA
Protocol: (§1) IL-6 (BD Biosciences, USA) production by LPS (Escherchia coli 0127:B8, Sigma, USA) in THP-1 cells (ATCC number: TIB202) was designed as in reference, Journal of Immunology, 151, 5631-5638, (1993), the disclosure of which is incorporated by reference for the teaching of the assay.
(§2) THP-1 cells were cultured in RPMI 1640 culture medium (Gibco BRL, UK) containing 100 U/mL penicillin and […] streptomycin, (100× solution, Sigma, USA) containing 10% FBS (JRH Biosciences, USA). 25,000 cells were seeded per well in 96-well plate (Nunc, USA). The cells were differentiated with PMA (Sigma, USA, prepared as 100 μg/mL stock in RPMI and was diluted to 5 ng/mL). The test compound (prepared as 20 mM stock in DMSO and diluted with DMSO to achieve the following final concentrations in the assay: 100, 10, 1, 0.1, 0.01, 0.001 and 0.0001 μM) or vehicle (0.5% DMSO) were added to the cells and the cells were incubated for 30 min at 37° C. LPS (Sigma, USA, prepared as 1 mg/mL stock in PBS) was added to achieve a final concentration of 1 μg/mL. Plates were incubated at 37° C. for 24 h at 5% CO2. Supernatants were harvested, and assayed for TNF-α and IL-6 by ELISA as described by the manufacturer (BD Biosciences, USA). Percent inhibition of cytokine release compared to the control was calculated. The IC50 values were calculated by a nonlinear regression method.

IL-6 [1] = test: Screening in LPS stimulated THP-1 cells: IL-6; assay type: cell-based; conditions: Homo sapiens, 24 h, ELISA
Protocol: as §1, §2

IL-8 = test: Synovial tissue assay (spontaneous production): IL-8; assay type: cell-based; conditions: Homo sapiens, synovial tissue cells from rheumatoid arthritis patients, 16 h, read-out: IC50 of IL-8 inhibition
From the text: The ability of compounds of the present invention to inhibit spontaneous production of cytokines from freshly isolated human synovial tissue cells was designed as in reference, Lancet, 29, 244-247, (1989) the disclosure of which is incorporated by reference for the teaching of the assay.
Synovial tissue was obtained from rheumatoid arthritis patients undergoing knee replacement surgery. […] Subsequently, the cells were washed 3 times with RPMI 1640 culture medium and resuspended in complete medium (RPMI 1640 culture medium supplemented with 5% FBS and 5% human serum-AB+(Sigma, USA) at a concentration of 1×10^6 cells/mL. The viability of synovial cells was determined by trypan blue dye exclusion and was uniformly ≧98%. For the experiment, 100 μL of cell suspension was added to the wells of a 96-well culture plate (Nunc, USA). Following cell plating, 100 μL of the culture medium and 1 μL of various concentrations of the test compound (test compound was dissolved in DMSO to obtain a stock solution of 20 mM. […] The IC50 values were calculated by a nonlinear regression method using the GraphPad software (Prism 3.03).

BCL2 = test: Gene expression profile using RTQ-PCR: BCL2; assay type: cell-based, human; conditions: 3 μM, ± SE, N = 3
Protocol: (§3) The effect of the compound of example 7 was measured in stimulated untreated cells from the monocytic cell line (THP-1), human monocytes and synovial cells from rheumatoid arthritis patient. The effect of the compound in the THP-1 cell line was measured in terms of gene expression and was expressed as fold changes as compared to the cell stimulated control with no drug treatment.
(§4) THP-1 cells, human monocytes and synovial cells were treated with compound of example 7 or vehicle (0.5% DMSO). Total RNA isolation using a commercial RNA extraction kit (Qiagen Corporation, Germany) The first-strand cDNA was synthesized from total RNA using first strand cDNA synthesis kit from Invitrogen Corporation (California, USA). This was followed by real time quantitative polymerase chain reaction (RTQ PCR) using gene specific primers and standard thermal program of initial denaturation at 95° C. for 5 min and cycles of 95° C. for 10 seconds, followed by 60° C. for 30 seconds (Realplex PCR machine from Eppendorf, Germany). Quantitative measurement of products made during PCR cycles was normalized against a housekeeping gene (Actin) and was used to measure the gene expression as fold changes as compared to respective control.

IL-6 [2] = test: Gene expression profile using RTQ-PCR: IL-6; assay type: cell-based, human; conditions: 3 μM
Protocol: as §3, §4

[3] = system: DBA/1J mice with collagen induced arthritis; test: Arthritic mice: administration by osmotic pumps; assay type: in vivo; conditions: sub-cutaneous osmotic pumps, 240 μg/mouse/24 h, 26 days
Protocol: The experiment was performed in DBA/1J mice, in which arthritis was developed by injection of collagen emulsion, as described in Example 26.
The animals were divided into two groups, viz. a control group and a test compound treated group, having 6 animals each. The clear solution of test compound was prepared in 100% dimethyl sulfoxide (DMSO) and then DMSO concentration was brought down to 25% by addition of appropriate quantities of ethanol and polyethylene glycol 400 (PEG 400), so that the proportion of each solvent in a final solution v/v was 25:15:60::DMSO:EtOH:PEG-400. By this method absolutely clear solution of the compound having a final concentration of 40 mg/mL was obtained. This solution was filtered through 0.2μ filter and was filled in osmotic pumps (Alzet micro-osmotic pump model 1002). The delivery rate of this model of pump is 0.25 μL per hour and it remains functional for 14 days.
These pumps were then implanted sub-cutaneously in the animals of the test compound treated group (240 μg/mouse/24 h). The pumps filled with blank solvent were implanted sub-cutaneously in the animals of control group. Thereafter, their paws were scored for arthritic indices, in addition to measurement of thickness, daily once. After 14 days, the pumps were replaced with freshly filled pumps and the experiment was continued for next 12 days (total 26 days).

C/C=C/C(O)C(C)/C=C/C(=N\O)C(C)C(O)C(C)C1OC(=O)/C(OC)=C/C(C)=C/C(C)C(O)C(CC)C(O)C(C)C/C(C)=C/C=C/C1OC (stereo not drawn) [Compound of example 7, (3Z,5E,13E,15E)-18-((5Z,6E,10E)-3,9-Dihydroxy-5-(hydroxymino)-4,8-dimethyldodeca-6,10-dien-2-yl)-9-ethyl-8,10-dihydroxy-3,17-dimethoxy-5,7,11,13-tetramethyl oxacyclooctadeca-3,5,13,15-tetraen-2-one]
IC50 (TNF-α): 18 µM
IC50 (IL-6 [1]): 0.04 µM
IC50 (IL-8): 1.3 µM
BCL2 gene expression (BCL2; Human monocytes, 3 h): −1.7 + 0.4 log fold change
BCL2 gene expression (BCL2; THP-1 cells, 12 h): −1.3 ± 0.8 log fold change
IL-6 gene expression (IL-6 [2]; Human monocytes, 3 h, ± SE, N = 3): −1.1 + 1.0 log fold change
IL-6 gene expression (IL-6 [2]; Synovial cells, 12 h, N = 1): −4.0 log fold change
IL-6 gene expression (IL-6 [2]; THP-1 cells, 12 h, ± SE, N = 3): −1.5 + 1.0 log fold change
severity of arthritis (arthritic scores and paw thickness) [3]: reduces severity of arthritis
